The experiment has as its system HCV replicon. Type of experiment: cell-based, hepatitis C virus. To be noted: HCV replicon cells, two days with compound, replicon RNA corrected by GAPDH; read-out: HCV replicon inhibitory activity: EC50. Here is the method: The inhibitory activity against the replication of HCV replicon was evaluated by determining the amount of replicon RNA, purified from cell lysate with a conventional column method, using real-time RT-PCR based on Taq-Man chemistry. The assay was carried out with the modified method reported by Lohmann et al., Science 285: 100 (1999) and Takeuchi et al., Gastroenterology 116: 636-642 (1999). The details thereof are described in the following.
7.5×10^3 HCV replicon cells in 0.1 ml of D-MEM medium containing 5% fetal bovine serum and 300 μg/ml of G418 (Kishine et al., B.B.R.C. 293: 993-999 (2002)) were seeded in each well of a 96-well microtiter plate (Corning Inc.). After the plate was incubated at 37° C. for 16 hours in 5% CO2, the medium was replaced with the above-mentioned medium in which the test compound was dissolved. […]
RT-PCR was carried out by using the ABI PRISM 7900HT sequence detection system (Applied Biosystems Inc.), and the gene copy number of the HCV replicon RNA in each cell was determined. […]
As a further control for RNA recovery in each assay well, the copy number of cellular Glyceraldehyde-3-phosphate dehydrogenase (GAPDH) mRNA was quantified by real-time RT-PCR with specific primer set and probe (all of these were produced by Takara Shuzo Co., Ltd.) as described above (part3) […]
(In general: A replicon is a self-replicating genome or part of one, used to study replication in cells.)

Where only a bound is given, the exact number is not on record here.

The EC50 is the concentration giving half of the maximal effect.

Take `C/C=C/C[C@@H](C)[C@@H](O)[C@H]1C(=O)N[C@@H]([C@@H](C)O)C(=O)N(C)CC(=O)N(C)[C@@H](CC(C)C)C(=O)N[C@@H](CC(C)C)C(=O)N(C)[C@@H](CC(C)C)C(=O)N[C@@H](C)C(=O)N[C@H](C)C(=O)N(C)[C@@H](C[C@H](C)CO)C(=O)N[C@@H](CC(C)C)C(=O)N(C)[C@@H](C(C)C)C(=O)N1C` [(2)]: the EC50 was below 3000 nM.

(Values after patent US7696167B2, “Cyclic peptide compound” (Astellas Pharma Inc., priority 2004, dated 2010).)
